The supplement of paper PMC10307832

What was measured:
Assay in all cases: relative viability (nuclei count vs DMSO), 5 days (fraction); higher = more cells survive
IDH-C35 + AZD7762 = compound: Cc1ccccc1C(C(=O)NC1CCCCC1)N(C(=O)Cn1ccnc1C)c1cccc(F)c1 [IDH-C35] + NC(=O)Nc1cc(-c2cccc(F)c2)sc1C(=O)N[C@H]1CCCNC1 [AZD7762] (partner 0.2 µM)
Procedure, shortened: (§1)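 Lung cancer cell lines were pin-tool dosed in 1536-well plates on the day after seeding, with either a lone drug or a fixed anchor-drug dose plus five library-drug doses (not always all listed) in √10 steps. Nuclei were counted on 4× images after 5 days. Relative viability is the ratio of treated-well to vehicle-well nuclei counts, with each value a median of duplicate plates.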

IDH-C35 + Phenformin = compound: Cc1ccccc1C(C(=O)NC1CCCCC1)N(C(=O)Cn1ccnc1C)c1cccc(F)c1 [IDH-C35] + N=C(N)NC(=N)NCCc1ccccc1 [Phenformin] (partner 250 µM)
Procedure, shortened: as §1

[1] = compound: CC1=C(C(=NN1)C)CC2=C(C3=C(S2)N(C(=O)N(C3=O)C)CC(C)C)C(=O)N4C[C@@H](CO4)O + O=C(CCCCCCC(=O)Nc1ccccc1)NO [Vorinostat] (partner 1 µM)
Procedure, shortened: as §1

[2] = compound: CC1=C(C(=NN1)C)CC2=C(C3=C(S2)N(C(=O)N(C3=O)C)CC(C)C)C(=O)N4C[C@@H](CO4)O + CC(C)C[C@H](NC(=O)[C@H](Cc1ccccc1)NC(=O)c1cnccn1)B(O)O [Bortezomib] (partner 0.002 µM)
Procedure, shortened: as §1

Cell Line | relative viability (IDH-C35 + AZD7762; first compound 0.08 µM) | relative viability (IDH-C35 + AZD7762; first compound 0.253 µM) | relative viability (IDH-C35 + AZD7762; first compound 0.8 µM) | relative viability (IDH-C35 + AZD7762; first compound 2.53 µM) | relative viability (IDH-C35 + AZD7762; first compound 8 µM) | relative viability (IDH-C35 + Phenformin; first compound 0.08 µM) | relative viability (IDH-C35 + Phenformin; first compound 0.253 µM) | relative viability (IDH-C35 + Phenformin; first compound 0.8 µM) | relative viability (IDH-C35 + Phenformin; first compound 2.53 µM) | relative viability (IDH-C35 + Phenformin; first compound 8 µM) | relative viability ([1]; first compound 0.0025 µM) | relative viability ([1]; first compound 0.007906 µM) | relative viability ([1]; first compound 0.025 µM) | relative viability ([1]; first compound 0.07906 µM) | relative viability ([1]; first compound 0.25 µM) | relative viability ([2]; first compound 0.0025 µM) | relative viability ([2]; first compound 0.007906 µM) | relative viability ([2]; first compound 0.025 µM) | relative viability ([2]; first compound 0.07906 µM) | relative viability ([2]; first compound 0.25 µM)
NCI-H1993 | 0.755 | 0.749 | 0.755 | 0.784 | 0.713 | 0.56 | 0.508 | 0.476 | 0.555 | 0.524 | 1.03 | 0.664 | 0.685 | 0.623 | 0.711 | 1.19 | 1.12 | 1.09 | 1.01 | 1.15
RERF-LC-KJ | 1.03 | 1.03 | 0.982 | 0.794 | 1.01 | 0.415 | 0.443 | 0.419 | 0.456 | 0.403 | 0.738 | 0.814 | 0.66 | 0.696 | 0.767 | 1.01 | 1.23 | 1.22 | 1.06 | 1.21
NCI-H23 | 0.239 | 0.253 | 0.229 | 0.359 | 0.272 | 0.824 | 0.746 | 0.788 | 0.756 | 0.705 | 0.76 | 0.627 | 0.638 | 0.587 | 0.737 | 1.07 | 1.24 | 0.848 | 0.964 | 1.33
HCC-366 | 0.306 | 0.306 | 0.233 | 0.227 | 0.281 | 0.658 | 0.629 | 0.621 |  | 0.578 | 0.438 | 0.365 | 0.348 | 0.399 | 0.447 | 1.04 | 1.1 | 0.958 | 1.07 | 1.13
EMC-BAC-2 | 1.1 | 1.12 | 1.16 | 1.18 | 1.16 | 0.5 | 0.584 | 0.583 | 0.508 | 0.493 | 0.487 | 0.513 | 0.386 | 0.565 | 0.538 | 1.15 | 1.15 | 1.04 | 1.06 | 1.1
NCI-H2405 | 0.857 | 0.771 | 0.815 | 0.913 | 0.768 | 0.419 | 0.394 | 0.41 | 0.384 | 0.363 | 1.13 | 1.07 | 0.849 | 0.96 | 0.888 | 0.991 | 0.912 | 0.918 | 0.858 | 0.941
EPLC-272H | 0.387 | 0.266 | 0.215 |  | 0.305 | 0.33 | 0.275 | 0.314 | 0.294 | 0.296 | 0.454 | 0.447 | 0.61 | 0.438 | 0.351 | 0.919 | 0.874 | 0.971 | 1.01 | 0.925
NCI-H1915 | 0.674 | 0.7 | 0.696 | 0.663 | 0.716 | 0.364 | 0.37 | 0.382 | 0.369 | 0.341 | 0.573 | 0.541 | 0.488 | 0.51 | 0.588 | 0.987 | 1.03 | 0.974 | 0.827 | 1.03
NCI-H596 | 0.959 | 1.14 | 1.01 | 1.05 | 1.26 | 0.781 | 0.819 | 0.705 |  | 0.786 | 0.783 | 0.652 | 0.625 | 0.697 | 0.479 | 0.997 | 1.11 | 1.05 | 1.15 | 0.98
NCI-H322M | 0.532 | 0.65 | 0.476 | 0.538 | 0.546 | 0.761 | 0.798 | 0.772 | 0.749 | 0.743 | 0.876 | 0.821 | 0.857 | 0.953 | 0.801 | 1.34 | 1.19 | 1.33 | 1.23 | 1.19
NCI-H647 | 0.489 | 0.488 | 0.424 | 0.42 | 0.418 | 0.425 | 0.446 | 0.626 | 0.55 | 0.491 | 0.564 | 0.744 | 0.473 | 0.617 | 0.606 | 1.27 | 1.09 | 0.802 | 1.11 | 1.1
NCI-H2085 | 1.04 | 1.09 | 0.953 | 0.985 | 0.924 | 0.748 | 0.737 | 0.714 | 0.767 | 0.595 | 0.829 | 0.791 | 0.78 | 0.797 | 0.514 | 1.04 | 0.978 | 0.947 | 0.98 | 0.926
NCI-H727 | 0.633 | 0.655 | 0.539 | 0.469 | 0.597 | 0.471 | 0.525 | 0.509 | 0.493 | 0.579 | 1.16 | 1.25 | 1.05 | 1.05 | 1.13 | 0.919 | 0.583 | 0.694 | 0.716 | 0.873
NCI-H441 | 1.39 | 1.31 | 1.09 | 1.21 | 0.98 | 1.07 | 0.866 | 0.72 | 1.01 | 0.807 | 0.959 | 0.774 | 0.716 | 0.696 | 1.12 | 0.822 | 0.34 | 0.626 | 0.636 | 0.707
LOU-NH91 | 0.805 | 0.73 | 0.753 | 0.765 | 0.815 | 0.78 | 0.784 | 0.685 | 0.752 | 0.497 | 1.03 | 0.875 | 0.939 | 1.07 | 1 | 0.473 | 0.486 | 0.546 | 0.423 | 0.476
NCI-H3122 | 1.02 | 0.996 | 1.02 | 0.987 | 1.03 | 0.391 | 0.372 | 0.4 | 0.376 | 0.359 | 1.03 | 1.12 | 1.1 | 0.731 | 0.918 | 0.963 | 0.978 | 1 | 0.99 | 1.02
